In paper PMC10545747, “Development of cyclopeptide inhibitors of cGAS targeting protein-DNA interaction and phase separation” (Nature Communications, 2023):
Values joined by “and” are separate entries in the source; they are usually repeats but may differ in a detail not shown here. Equal values may be shown once. Square brackets hold non-standard residues; d marks the D form. Peptide text beside a SMILES is read from it.

Biological target: T1, recombinant human cGAS enzyme (hcGAS-ΔN, residues 147–522) (Homo sapiens, UniProt Q8N884)
T1 construct: N-terminally truncated human cGAS (hcGAS-ΔN, residues 147–522); 6xHis-SUMO (N, cleaved yes); made in house; host or cells: Escherichia coli BL21 (DE3)
T1 sequence (Q8N884 147-522, stated change not applied): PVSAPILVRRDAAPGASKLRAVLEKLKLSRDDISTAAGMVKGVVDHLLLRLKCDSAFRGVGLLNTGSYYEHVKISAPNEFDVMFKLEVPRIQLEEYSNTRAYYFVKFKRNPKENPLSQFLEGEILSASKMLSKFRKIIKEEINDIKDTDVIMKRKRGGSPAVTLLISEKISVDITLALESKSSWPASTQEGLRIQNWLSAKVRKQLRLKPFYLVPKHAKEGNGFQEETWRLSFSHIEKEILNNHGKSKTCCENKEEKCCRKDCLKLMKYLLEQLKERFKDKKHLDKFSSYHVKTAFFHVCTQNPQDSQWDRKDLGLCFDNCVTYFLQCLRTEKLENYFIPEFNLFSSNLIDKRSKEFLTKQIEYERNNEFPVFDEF
Test: RNA-based fluorescent biosensor assay of cGAS activity (2',3'-cGAMP formation), in vitro screening
Format: biochemical
Settings: for Remaining activity (%), Fig. 1a source data / remaining activity at 20 µM: 20 μM, replicate values; for remaining activity at 20 µM: read-out: Remaining activity (%), Fig. 1a source data; for inhibition at 20 µM / Inhibition %: peptides screened at 20 μM, Supplementary Table 1 / Fig. S5b; for inhibition at 20 µM: read-out: Inhibition %
How it was run: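 In 40 mM Tris-HCl pH 7.5, 100 mM NaCl, 10 mM MgCl2, ISD (0.5 μM) started the reaction with hcGAS-ΔN (1.5 μM), ATP (1 mM) and GTP (1 mM). Incubation was 2 h at 37 °C, with compounds screened at 20 μM. 2',3'-cGAMP formed was quantified with an RNA-based fluorescent biosensor.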

| Remaining activity (%), Fig. 1a source data | remaining activity at 20 µM [%] | inhibition at 20 µM [%] | Inhibition % [%] | Compound | cGAS activity in the biosensor assay |
| --- | --- | --- | --- | --- | --- |
| 115.337% and 116.119% | 117 | 0 | – | CC(C)C[C@@H]1NC(=O)[C@H](CCCNC(=N)N)NC(=O)[C@H]([C@@H](C)O)NC(=O)[C@@H]2CCCN2C(=O)[C@@H](C)NC(=O)[C@H](CC(C)C)NC(=O)[C@H](CCCNC(=N)N)NC(=O)[C@H]([C@@H](C)O)NC(=O)[C@@H]2CCCN2C(=O)[C@@H](C)NC1=O [XQ40, Cyclo (LaPTRLaPTR)] (cyclo(L[dA]PTRL[dA]PTR)) | – |
| 87.273% and 87.6684% | 86 | 13 | – | CC(C)C[C@@H]1NC(=O)[C@H](CCCNC(=N)N)NC(=O)[C@H]([C@@H](C)O)NC(=O)[C@@H]2CCCN2C(=O)[C@@H](Cc2ccccc2)NC(=O)[C@H](CC(C)C)NC(=O)[C@H](CCCNC(=N)N)NC(=O)[C@H](C(C)C)NC(=O)[C@@H]2CCCN2C(=O)[C@@H](Cc2ccccc2)NC1=O [XQ42, Cyclo (LfPTRLfPVR)] (cyclo(L[dF]PTRL[dF]PVR)) | – |
| – | – | – | 0 | Cyclo (LwPTD(Nle)f(K(Dde))VR) [XQ73] | – |
| – | – | – | 0 | Cyclo (Aa(Hyp)TDLfPTR) [XQ85] | – |
| – | – | 0 | – | CC(C)C[C@@H]1NC(=O)[C@H](CCCNC(=N)N)NC(=O)[C@H](C(C)C)NC(=O)[C@@H]2CCCN2C(=O)[C@@H](Cc2ccccc2)NC(=O)[C@H](CC(C)C)NC(=O)[C@H](CC(=O)O)NC(=O)[C@H](C(C)C)NC(=O)[C@H](CCCNC(=N)N)NC(=O)[C@@H](Cc2ccccc2)NC1=O [XQ76, Cyclo (LfRVDLfPVR)] (cyclo(DL[dF]PVRL[dF]RV)) | – |
| 99.1383% and 98.554% | 98.3 | 1 | – | CC(C)C[C@@H]1NC(=O)[C@H](CCCNC(=N)N)NC(=O)[C@H](C)NC(=O)[C@@H]2CCCN2C(=O)[C@@H](Cc2ccccc2)NC(=O)[C@H](C)NC(=O)[C@H](CCCNC(=N)N)NC(=O)[C@H](C)NC(=O)[C@@H]2CCCN2C(=O)[C@@H](Cc2ccccc2)NC1=O [XQ16, Cyclo (AfPARLfPAR)] (cyclo(ARA[dF]PARL[dF]P)) | – |
| 93.9479% and 95.218% | 94.3 | 5 | – | CC(C)[C@@H]1NC(=O)[C@@H]2CCCN2C(=O)[C@@H](Cc2ccccc2)NC(=O)[C@H](C)NC(=O)[C@H](CCCNC(=N)N)NC(=O)[C@H](C)NC(=O)[C@@H]2CCCN2C(=O)[C@@H](Cc2ccccc2)NC(=O)[C@H](C)NC(=O)[C@H](CCCNC(=N)N)NC1=O [XQ18, Cyclo (AfPARAfPVR)] (cyclo(ARA[dF]PVRA[dF]P)) | – |
| – | – | – | 0 | Cyclo (Lf(Hyp)TDAfPTR) [XQ86] | – |
| – | – | 0 | – | CC(C)C[C@@H]1NC(=O)[C@H](CCCNC(=N)N)NC(=O)[C@H](C(C)C)NC(=O)[C@@H]2CCCN2C(=O)[C@@H](Cc2ccccc2)NC(=O)[C@H](Cc2c[nH]cn2)NC(=O)[C@H](CC(=O)O)NC(=O)[C@H]([C@@H](C)O)NC(=O)[C@@H]2CCCN2C(=O)[C@@H](Cc2ccccc2)NC1=O [XQ67, Cyclo (LfPTDHfPVR)] (cyclo(DH[dF]PVRL[dF]PT)) | – |
| – | – | – | 0 | Cyclo (AaRVDLfPVR) [XQ87] | – |
| 86.4291% and 86.3946% | 85.2 | 14 | – | CC(C)C[C@@H]1NC(=O)[C@H](CCCNC(=N)N)NC(=O)[C@H](C(C)C)NC(=O)[C@@H]2CCCN2C(=O)[C@@H](Cc2c[nH]c3ccccc23)NC(=O)[C@H](CC(C)C)NC(=O)[C@H](CCCNC(=N)N)NC(=O)[C@H](C(C)C)NC(=O)[C@@H]2CCCN2C(=O)[C@@H](Cc2c[nH]c3ccccc23)NC1=O [XQ11, Cyclo (LwPVRLwPVR)] (cyclo(L[dW]PVRL[dW]PVR)) | – |
| – | – | 0 | – | CC(C)C[C@@H]1NC(=O)[C@H](CCCNC(=N)N)NC(=O)[C@H](C(C)C)NC(=O)[C@@H]2CCCN2C(=O)[C@@H](Cc2ccccc2)NC(=O)[C@H](C)NC(=O)[C@H](CCCNC(=N)N)NC(=O)[C@H](C(C)C)NC(=O)[C@@H]2CCCN2C(=O)[C@@H](CC(C)C)NC1=O [XQ53, Cyclo (LlPVRAfPVR)] (cyclo(A[dF]PVRL[dL]PVR)) | – |
| – | – | – | 0 | Cyclo (LfPVDAfPVR) [XQ81] | – |
| 107.77% and 107.519% | 107 | 0 | – | CC(C)C[C@@H]1NC(=O)[C@H](C)NC(=O)[C@H](C(C)C)NC(=O)[C@@H]2CCCN2C(=O)[C@@H](Cc2ccccc2)NC(=O)[C@H](CCCNC(=N)N)NC(=O)[C@H](CCCNC(=N)N)NC(=O)[C@H](C(C)C)NC(=O)[C@@H]2CCCN2C(=O)[C@@H](Cc2ccccc2)NC1=O [XQ44, Cyclo (RfPVALfPVR)] (cyclo(AL[dF]PVRR[dF]PV)) | – |
| – | – | – | 0 | Cyclo ((hex)DLfPVR(hex)) [XQ69] | – |
| 88.7067% and 87.9053% | 89.5 | 11 | – | CC(C)C[C@@H]1NC(=O)[C@H](CCCNC(=N)N)NC(=O)[C@H]([C@@H](C)O)NC(=O)[C@@H]2CCCN2C(=O)[C@@H](Cc2ccccc2)NC(=O)[C@H](CC(C)C)NC(=O)[C@H](CCCNC(=N)N)NC(=O)[C@H](C)NC(=O)[C@@H]2CCCN2C(=O)[C@@H](Cc2ccccc2)NC1=O [XQ36, Cyclo (LfPARLfPTR)] (cyclo(ARL[dF]PTRL[dF]P)) | – |
| – | – | – | 0 | Cyclo (Lw(K(Dde))VDLf(K(Dde))VR) [XQ71] | – |
| 101.466% and 100.76% | 101 | 0 | – | CC(C)C[C@@H]1NC(=O)[C@H](CCCNC(=N)N)NC(=O)[C@H](C(C)C)NC(=O)[C@@H]2CCCN2C(=O)[C@@H](C)NC(=O)[C@H](CC(C)C)NC(=O)[C@H](CCCNC(=N)N)NC(=O)[C@H](C(C)C)NC(=O)[C@@H]2CCCN2C(=O)[C@@H](C)NC1=O [XQ7, Cyclo (LaPVRLaPVR)] (cyclo(L[dA]PVRL[dA]PVR)) | – |
| 93.0523% and 92.7481% | 93.2 | 7 | – | CC(C)C[C@@H]1NC(=O)[C@H](CCCNC(=N)N)NC(=O)[C@H]([C@@H](C)O)NC(=O)[C@@H]2CCCN2C(=O)[C@@H](Cc2ccccc2)NC(=O)[C@H](C(C)C)NC(=O)[C@H](CCCNC(=N)N)NC(=O)[C@H]([C@@H](C)O)NC(=O)[C@@H]2CCCN2C(=O)[C@@H](Cc2ccccc2)NC1=O [XQ30, Cyclo (VfPTRLfPTR)] (cyclo(L[dF]PTRV[dF]PTR)) | – |
| – | – | – | – | CCN(CC)CCCC(C)Nc1c2ccc(Cl)cc2nc2ccc(OC)cc12 (centres unmarked) [quinacrine, reference compound] | inhibited the activity of cGAS in a dose-dependent manner |
| – | – | 0 | – | CC(C)C[C@@H]1NC(=O)[C@H](CCCNC(=N)N)NC(=O)[C@H](C(C)C)NC(=O)[C@@H]2CCCN2C(=O)[C@@H](Cc2ccccc2)NC(=O)[C@H](C)NC(=O)[C@H](CCCNC(=N)N)NC(=O)[C@H](C(C)C)NC(=O)[C@H](CC(C)C)NC(=O)[C@@H](Cc2ccccc2)NC1=O [XQ52, Cyclo (LfLVRAfPVR)] (cyclo(A[dF]PVRL[dF]LVR)) | – |
| 92.9858% and 93.5702% | 92.7 | 7 | – | CC(C)C[C@@H]1NC(=O)[C@H](CCCNC(=N)N)NC(=O)[C@H]([C@@H](C)O)NC(=O)[C@@H]2CCCN2C(=O)[C@@H](Cc2ccccc2)NC(=O)[C@H](Cc2ccccc2)NC(=O)[C@H](CCCNC(=N)N)NC(=O)[C@H]([C@@H](C)O)NC(=O)[C@@H]2CCCN2C(=O)[C@@H](Cc2ccccc2)NC1=O [XQ29, Cyclo (FfPTRLfPTR)] (cyclo(F[dF]PTRL[dF]PTR)) | – |
| 77.1619% and 77.2258% | 76.3 | 23 | – | CC(C)C[C@@H]1NC(=O)[C@H](C)NC(=O)[C@H](CCCNC(=N)N)NC(=O)[C@@H]2CCCN2C(=O)[C@@H](Cc2ccccc2)NC(=O)[C@H](CC(C)C)NC(=O)[C@H](CCCNC(=N)N)NC(=O)[C@H](C(C)C)NC(=O)[C@@H]2CCCN2C(=O)[C@@H](Cc2ccccc2)NC1=O [XQ43, Cyclo (LfPRALfPVR)] (cyclo(AL[dF]PVRL[dF]PR)) | – |
| 102.306% and 102.914% | 103 | 0 | – | CC(C)C[C@@H]1NC(=O)[C@H](CCCNC(=N)N)NC(=O)[C@H]([C@@H](C)O)NC(=O)[C@@H]2CCCN2C(=O)[C@@H](Cc2ccccc2)NC(=O)[C@H](CC(C)C)NC(=O)[C@H](CCCNC(=N)N)NC(=O)[C@H]([C@@H](C)O)NC(=O)[C@@H]2CCCN2C(=O)[C@@H](C)NC1=O [XQ34, Cyclo (LaPTRLfPTR)] (cyclo(L[dA]PTRL[dF]PTR)) | – |
| 103.793% and 104.243% | 103 | 0 | – | CC(C)[C@@H]1NC(=O)[C@@H]2CCCN2C(=O)[C@@H](Cc2ccccc2)NC(=O)[C@H](C)NC(=O)[C@H](CCCNC(=N)N)NC(=O)[C@H](C(C)C)NC(=O)[C@@H]2CCCN2C(=O)[C@@H](Cc2ccccc2)NC(=O)[C@H](C)NC(=O)[C@H](CCCNC(=N)N)NC1=O [XQ10, Cyclo (AfPVRAfPVR)] (cyclo(A[dF]PVRA[dF]PVR)) | – |
| – | – | 0 | – | CC(C)C[C@@H]1NC(=O)[C@H](CCCNC(=N)N)NC(=O)[C@H](C(C)C)NC(=O)[C@H](CC(C)C)NC(=O)[C@@H](Cc2ccccc2)NC(=O)[C@H](C)NC(=O)[C@H](CCCNC(=N)N)NC(=O)[C@H](C(C)C)NC(=O)[C@@H]2CCCN2C(=O)[C@@H](Cc2ccccc2)NC1=O [XQ48, Cyclo (AfLVRLfPVR)] (cyclo(A[dF]LVRL[dF]PVR)) | – |
| – | – | 0 | – | CC(C)C[C@@H]1NC(=O)[C@H](CCCNC(=N)N)NC(=O)[C@H](CC(C)C)NC(=O)[C@@H]2CCCN2C(=O)[C@@H](Cc2ccccc2)NC(=O)[C@H](C)NC(=O)[C@H](CCCNC(=N)N)NC(=O)[C@H](C(C)C)NC(=O)[C@@H]2CCCN2C(=O)[C@@H](Cc2ccccc2)NC1=O [XQ47, Cyclo (AfPLRLfPVR)] (cyclo(A[dF]PLRL[dF]PVR)) | – |
